Experiment: xn = mol fraction of the nth substance listed
Conditions: 101 kPa, x2 = 0.3209

CCCC[n+]1ccn(C)c1.O=S(=O)([O-])C(F)(F)F + NCCO
Conditions | speed of sound [m/s] | viscosity [mPa·s]
298.15 K | 1428.8 | 41.99
303.15 K | 1417 | 34.4
308.15 K | 1405.2 | 28.38
313.15 K | 1393.2 | 23.76
318.15 K | 1382.1 | 20.13
323.15 K | 1370.6 | 17.25
328.15 K | 1359.2 | 14.94
333.15 K | 1348 | 13.05
